Columns and labels:
[1] = DRUGMATRIX: Platelet-Derived Growth Factor (PDGF) radioligand binding (ligand: [125I] PDGF); type: cell-based; details: nih3t3; Not Active = under 50% inhibition at 10 µM
[2] = target: Beta-3 adrenergic receptor (Homo sapiens, UniProt P13945); assay: DRUGMATRIX: Adrenergic beta3 radioligand binding (ligand: [125I] Cyanopindolol); type: cell membranes, HEK293, Membrane; details: hek293; Not Active = under 50% inhibition at 10 µM
[3] = target: T1, C-X-C chemokine receptor type 2 (Homo sapiens, UniProt P25025); type: cell membranes, Membrane; details: cho-k1; note: in other assays of this panel Not Active means under 50% inhibition at 10 µM
T1 sequence (P25025 whole entry): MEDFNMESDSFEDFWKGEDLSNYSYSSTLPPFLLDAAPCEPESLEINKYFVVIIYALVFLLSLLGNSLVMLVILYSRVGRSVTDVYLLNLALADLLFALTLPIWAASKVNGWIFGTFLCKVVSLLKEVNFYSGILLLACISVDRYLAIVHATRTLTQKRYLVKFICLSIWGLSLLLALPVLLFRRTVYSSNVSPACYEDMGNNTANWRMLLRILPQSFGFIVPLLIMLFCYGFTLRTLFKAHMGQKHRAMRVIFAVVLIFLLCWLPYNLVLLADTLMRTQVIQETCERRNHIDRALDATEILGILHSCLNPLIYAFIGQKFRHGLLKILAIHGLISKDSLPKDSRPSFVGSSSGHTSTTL

[4] = DRUGMATRIX: GABAA, Chloride Channel, TBOB radioligand binding (ligand: [3H] TBOB); type: cell membranes, Rattus norvegicus, Wistar, Cerebral cortex, Membrane; details: Not Active = under 50% inhibition at 10 µM
Estrogen receptor = target: T2, Estrogen receptor (Homo sapiens, UniProt P03372); details: sf9; note: in other assays of this panel Not Active means under 50% inhibition at 10 µM
T2 sequence (P03372 whole entry): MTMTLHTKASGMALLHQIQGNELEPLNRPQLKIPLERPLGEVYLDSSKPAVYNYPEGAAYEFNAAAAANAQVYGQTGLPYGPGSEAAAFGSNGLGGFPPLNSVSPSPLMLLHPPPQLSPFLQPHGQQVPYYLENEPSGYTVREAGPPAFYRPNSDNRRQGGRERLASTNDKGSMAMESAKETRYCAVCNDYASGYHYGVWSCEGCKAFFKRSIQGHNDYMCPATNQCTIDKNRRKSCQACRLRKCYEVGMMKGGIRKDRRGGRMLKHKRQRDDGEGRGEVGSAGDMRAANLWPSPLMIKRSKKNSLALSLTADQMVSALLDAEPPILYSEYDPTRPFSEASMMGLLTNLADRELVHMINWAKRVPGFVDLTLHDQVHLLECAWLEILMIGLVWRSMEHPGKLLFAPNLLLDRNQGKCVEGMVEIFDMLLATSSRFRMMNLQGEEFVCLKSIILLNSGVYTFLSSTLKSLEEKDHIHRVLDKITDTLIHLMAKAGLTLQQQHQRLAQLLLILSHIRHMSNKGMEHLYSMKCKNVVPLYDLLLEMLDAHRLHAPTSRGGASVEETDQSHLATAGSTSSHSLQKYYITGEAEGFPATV

[5] = target: 5-hydroxytryptamine receptor 6 (Homo sapiens, UniProt P50406); type: cell membranes, HeLa, Membrane; details: hela; note: in other assays of this panel Not Active means under 50% inhibition at 10 µM
Cytochrome P450 3A4 = Cytochrome P450 3A4 (Homo sapiens, UniProt P08684); details: bti-tn-5b1-4; note: in other assays of this panel Not Active means under 50% inhibition at 10 µM
Cannabinoid receptor 1 = Cannabinoid receptor 1 (Homo sapiens, UniProt P21554); type: cell membranes, Chem-1, Membrane; details: chem-1; note: in other assays of this panel Not Active means under 50% inhibition at 10 µM
Cannabinoid receptor 1, sequence (P21554 whole entry): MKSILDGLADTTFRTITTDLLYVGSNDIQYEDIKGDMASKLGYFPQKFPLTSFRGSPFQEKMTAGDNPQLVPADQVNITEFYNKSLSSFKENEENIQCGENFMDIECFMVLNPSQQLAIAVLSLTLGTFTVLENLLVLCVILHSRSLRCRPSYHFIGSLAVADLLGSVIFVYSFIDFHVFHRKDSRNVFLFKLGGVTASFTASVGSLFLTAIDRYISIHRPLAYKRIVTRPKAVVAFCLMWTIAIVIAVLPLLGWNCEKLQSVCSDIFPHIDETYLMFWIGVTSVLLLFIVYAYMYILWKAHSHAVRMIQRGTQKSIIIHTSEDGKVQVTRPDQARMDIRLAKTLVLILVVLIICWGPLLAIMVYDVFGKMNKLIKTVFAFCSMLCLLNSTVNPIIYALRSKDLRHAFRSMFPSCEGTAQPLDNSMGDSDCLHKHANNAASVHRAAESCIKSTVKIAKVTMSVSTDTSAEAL

Cytochrome P450 3A4, sequence (P08684 whole entry): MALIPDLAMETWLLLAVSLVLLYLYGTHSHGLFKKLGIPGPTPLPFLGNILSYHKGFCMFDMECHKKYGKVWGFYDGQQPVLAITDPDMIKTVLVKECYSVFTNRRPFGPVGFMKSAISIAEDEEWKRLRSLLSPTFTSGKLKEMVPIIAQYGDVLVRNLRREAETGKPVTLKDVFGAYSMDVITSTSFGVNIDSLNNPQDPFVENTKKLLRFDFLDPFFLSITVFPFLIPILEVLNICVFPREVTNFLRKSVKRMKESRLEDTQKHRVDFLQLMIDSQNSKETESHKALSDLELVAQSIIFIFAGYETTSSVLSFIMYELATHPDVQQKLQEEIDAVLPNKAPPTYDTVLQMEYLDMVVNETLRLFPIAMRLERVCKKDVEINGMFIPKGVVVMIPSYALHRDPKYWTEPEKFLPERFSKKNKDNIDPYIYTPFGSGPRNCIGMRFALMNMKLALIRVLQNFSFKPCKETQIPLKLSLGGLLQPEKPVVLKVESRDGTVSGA
5-hydroxytryptamine receptor 6, sequence (P50406 whole entry): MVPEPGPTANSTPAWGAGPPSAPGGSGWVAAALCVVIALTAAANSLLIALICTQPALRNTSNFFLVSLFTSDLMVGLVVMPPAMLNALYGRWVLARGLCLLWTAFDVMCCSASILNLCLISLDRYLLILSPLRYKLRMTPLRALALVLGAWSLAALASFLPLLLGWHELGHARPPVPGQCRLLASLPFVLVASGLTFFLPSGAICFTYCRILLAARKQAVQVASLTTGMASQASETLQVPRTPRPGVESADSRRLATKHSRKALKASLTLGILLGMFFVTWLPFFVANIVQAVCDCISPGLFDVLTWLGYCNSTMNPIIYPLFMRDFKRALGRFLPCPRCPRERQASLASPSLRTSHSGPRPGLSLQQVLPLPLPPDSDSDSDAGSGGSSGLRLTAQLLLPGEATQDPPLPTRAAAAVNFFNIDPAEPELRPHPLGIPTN
Beta-3 adrenergic receptor, sequence (P13945 whole entry): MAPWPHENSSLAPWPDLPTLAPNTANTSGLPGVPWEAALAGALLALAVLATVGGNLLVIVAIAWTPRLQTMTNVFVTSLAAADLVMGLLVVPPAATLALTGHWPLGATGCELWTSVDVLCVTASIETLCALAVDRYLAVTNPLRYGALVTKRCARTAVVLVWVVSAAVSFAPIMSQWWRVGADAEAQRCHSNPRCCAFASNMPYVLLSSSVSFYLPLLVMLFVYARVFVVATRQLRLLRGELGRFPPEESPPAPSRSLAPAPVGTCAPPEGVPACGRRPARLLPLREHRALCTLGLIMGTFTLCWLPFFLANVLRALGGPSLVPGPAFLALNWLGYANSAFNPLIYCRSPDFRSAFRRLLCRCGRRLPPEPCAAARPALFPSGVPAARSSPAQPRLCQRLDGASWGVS

NYSTATIN
Not Active: IC50 [1] | Ki [1] | IC50 [2] | Ki [2] | IC50 [3] | Ki [3] | IC50 [4] | Ki [4] | IC50 (Estrogen receptor) | Ki (Estrogen receptor) | IC50 [5] | Ki [5] | IC50 (Cytochrome P450 3A4) | Ki (Cytochrome P450 3A4) | IC50 (Cannabinoid receptor 1) | Ki (Cannabinoid receptor 1)
